Measurements reported in BindingDB's records for doi:10.1021/jm980560x (University of Minnesota, 1999).

biological target: not listed separately; experiment: Displacement of [3H]vesamicol from Vesicular Acetylcholine Transporter (VAChT)

| SMILES | Ki |
| --- | --- |
| O[C@@H]1C[C@H]2CCCN(Cc3cccc(I)c3)[C@@H]2C[C@H]1N1CCC(c2ccccc2)CC1 [trans-trans-1-(3-iodobenzyl)-7-(4-phenylpiperidin-1-yl)-decahydroquinolin-6-ol] | 0.26 nM |
| O=C(c1ccccc1)N1CCC[C@@H]2C[C@@H](O)[C@H](N3CCC(c4ccccc4)CC3)C[C@H]21 [[(4aR,6R,7R,8aR)-6-Hydroxy-7-(4-phenyl-piperidin-1-yl)-octahydro-quinolin-1-yl]-phenyl-methanone] | 0.3 nM |
| O[C@@H]1CCNC[C@H]1N1CCC(c2ccccc2)CC1 | 2900 nM |
| O[C@@H]1C[C@@H]2[C@H](CCCN2Cc2ccc(F)cc2)C[C@H]1N1CCC(c2ccccc2)CC1 [(4aR,6R,7R,8aR)-1-(4-Fluoro-benzyl)-6-(4-phenyl-piperidin-1-yl)-decahydro-quinolin-7-ol] | 10 nM |
| O[C@@H]1C[C@H]2CCCN(Cc3ccc(F)cc3)[C@@H]2C[C@H]1N1CCC(c2ccccc2)CC1 [trans-trans-1-(4-fluorobenzyl)-7-(4-phenylpiperidin-1-yl)-decahydroquinolin-6-ol] | 0.99 nM |
| O[C@@H]1C[C@@H]2[C@H](CCCN2Cc2cccc(I)c2)C[C@H]1N1CCC(c2ccccc2)CC1 [(4aR,6R,7R,8aR)-1-(3-Iodo-benzyl)-6-(4-phenyl-piperidin-1-yl)-decahydro-quinolin-7-ol] | 5.2 nM |
| O[C@@H]1C[C@H]2CCCN(C/C=C/I)[C@@H]2C[C@H]1N1CCC(c2ccccc2)CC1 [(4aR,6R,7R,8aR)-1-((E)-3-Iodo-allyl)-7-(4-phenyl-piperidin-1-yl)-decahydro-quinolin-6-ol] | 0.4 nM |

biological target: Sigma-2 receptor (Rattus norvegicus); experiment: Binding affinity against Sigma-2 receptor in rat liver membranes using [3H]DTG (DuPont-NEN) as radioligand in the presence of (+)-pentazocine (100 nM)

| SMILES | Ki |
| --- | --- |
| O[C@@H]1C[C@H]2CCCN(C/C=C/I)[C@@H]2C[C@H]1N1CCC(c2ccccc2)CC1 [(4aR,6R,7R,8aR)-1-((E)-3-Iodo-allyl)-7-(4-phenyl-piperidin-1-yl)-decahydro-quinolin-6-ol] | 363 nM |
| O[C@@H]1CCN(Cc2cccc(I)c2)C[C@H]1N1CCC(c2ccccc2)CC1 [(-)-1''-(3-Iodo-benzyl)-4-phenyl-[1,3'']bipiperidinyl-4''-ol] | 190 nM |
